System: SC82 cells
Experiment: Bialaphos selection of SC82 suspension culture cells on filters
Type: cell-based, Zea mays
Procedure: The suspension culture (designated SC82) used in the initial experiments (see Example 8) was derived from embryogenic Type-II callus of A188×B73. Following bombardment (see Example 8), cells on filters were resuspended in nonselective liquid medium, cultured for 1 to 2 weeks and transferred to filters overlaying solid medium containing 1 or 3 mg/l bialaphos. The degree of inhibition of tissue growth during selection was dependent upon the density of the cells on the filter and on the concentration of bialaphos used.
Using either selection protocol (1 or 3 mg/l bialaphos), resistant cell colonies emerged on the selection plates of SC82 bombarded with pDPG165 approximately 6 to 7 weeks after bombardment (FIG. 2A). Bialaphos-resistant calli were maintained and expanded on selection medium. Much of this tissue was embryogenic (FIG. 2B). […] These were controls which confirm the prediction that cells without the bar gene are not resistant to bialaphos.

C[C@H](NC(=O)[C@H](C)NC(=O)[C@@H](N)CCP(C)(=O)O)C(=O)O [bialaphos]
growth of cells cultured on bialaphos (SC82 cells, 0.5 PCV/filter, 1 mg/l bialaphos): 30-50 % of nonselected growth | growth of cells on the original selection filter (SC82 cells, 0.5 PCV/filter, 3 mg/l bialaphos): ~10 % of nonselected growth | colony growth on selection plates (cells from untransformed suspension cultures, 1 or 3 mg/l bialaphos): No colony growth

Source: patent publication US6803499B1, “Methods and compositions for the production of stably transformed, fertile monocot plants and cells thereof” (DeKalb Genetics Corporation, priority 1989, dated 2004)
